Assay [1] concerns Hepatocyte. Briefly: Inhibition of P-glycoprotein in rat primary hepatocytes assessed as increase in intracellular rhodamine 123 accumulation at 100 uM after 3 hrs. The class given is cell-based.
For assay [2], the system named is Hepatocyte. Briefly: Inhibition of P-glycoprotein in rat primary hepatocytes assessed as increase in intracellular rhodamine 123 accumulation at 100 uM after 3 hrs relative to control. Format: cell-based.
Assay [3] has as its system Hepatocyte. The settings on record: Rattus norvegicus, 10 to 50 uM.
The test system of assay [4] is Hepatocyte. Briefly: Inhibition of P-glycoprotein in rat primary hepatocytes assessed as increase in intracellular rhodamine 123 accumulation after 3 hrs. The class given is cell-based.

The source made the active and inactive calls. The rule behind the calls is not given here.

As for `COc1ccc(-n2nnc(CCCN3c4ccccc4Sc4ccccc43)n2)cc1`, in assay [1], the inhibition result is “inactive”.
For the compound `COc1ccc(-n2nnc(CCCCN3c4ccccc4Sc4ccccc43)n2)cc1`, the inhibition in assay [2] is 20%.
On to `COc1ccc(-n2nnc(/C=C\C=C\N3c4ccccc4Sc4ccccc43)n2)cc1`, for which the inhibition entry in assay [1] is “inactive”.
On to `COc1ccc(CCN(C)CCCC(C#N)(c2ccc(OC)c(OC)c2)C(C)C)cc1OC` (stereo not given), for which the inhibition entry in assay [3] is “Active”.
On to `COc1ccc(-n2nnc(CCC(O)CN3c4ccccc4Sc4ccccc43)n2)cc1` (stereo not given), for which the inhibition result in assay [4] is “Dose-dependent effect”.

In general, inhibition refers to how much of the control response was suppressed.

The record behind these values is ChEMBL document CHEMBL2046326, “Selective hydroboration of dieneamines. Formation of hydroxyalkylphenothiazines as MDR modulators” (Bioorg Med Chem, 2012).
